# Values of other authors, collected in patent US7098224B2, “Hydroxylansoprazole methods” (Sepracor Inc., priority 1998, dated 2006).
# System: isolated parietal cells
# Details: Inatomi et al., Yakuri to Chiryo 19, 477–486 (1991)
"IC50 (read-out: inhibited acid formation in isolated parietal cells, IC50)",Structure (SMILES),inhibition of acid formation in isolated parietal cells (result in words)
90 nM,"Cc1c(OCC(F)(F)F)ccnc1C[S+]([O-])c1nc2ccccc2[nH]1 (racemic) [lansoprazole, Lansoprazole]",–
–,"Cc1c(OCC(F)(F)F)ccnc1C[S+]([O-])c1nc2cc(O)ccc2[nH]1 (racemic) [racemic hydroxylansoprazole, 2[[[3-methyl-4-(2,2,2-trifluoroethoxy)-2-pyridinyl]methyl]sulfinyl]-1 H-benzimidazol-5-ol]",did not inhibit acid formation
